# Molecular target: T1, JAK3 (JH1 and JH2 domain) (Homo sapiens, UniProt P52333)
# T1 sequence (P52333 521-1111 limits assumed): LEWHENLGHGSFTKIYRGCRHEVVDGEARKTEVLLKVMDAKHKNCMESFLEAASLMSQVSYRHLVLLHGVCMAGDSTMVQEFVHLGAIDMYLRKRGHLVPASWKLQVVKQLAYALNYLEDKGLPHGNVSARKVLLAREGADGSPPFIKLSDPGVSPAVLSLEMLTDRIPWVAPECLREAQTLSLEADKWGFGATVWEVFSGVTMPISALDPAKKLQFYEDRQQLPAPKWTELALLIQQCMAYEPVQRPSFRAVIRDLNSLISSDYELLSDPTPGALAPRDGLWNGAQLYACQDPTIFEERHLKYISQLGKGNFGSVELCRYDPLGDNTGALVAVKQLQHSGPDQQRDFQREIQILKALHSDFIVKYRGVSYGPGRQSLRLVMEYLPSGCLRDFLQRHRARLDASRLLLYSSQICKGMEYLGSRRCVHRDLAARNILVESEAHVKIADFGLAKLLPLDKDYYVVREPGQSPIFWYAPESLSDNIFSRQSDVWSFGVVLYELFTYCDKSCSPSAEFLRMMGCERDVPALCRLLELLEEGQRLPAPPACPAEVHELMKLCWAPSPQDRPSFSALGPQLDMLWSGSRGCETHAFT
# Assay: JAK3 Kinase Assay (ELISA of peptide substrate phosphorylation)
# Format: biochemical
# Conditions: purified JAK3 enzyme, 10 μM ATP, biotinylated peptide substrate, 1 hour at room temperature
# Procedure: JAK3 enzyme activity was assayed relative to enzyme phosphorylation using the method described herein.
# Sf21 cells derived from the ovarian tissue of the fall armyworm Spodotera frugiperda were obtained from Pharmingen (San Diego, Calif.) and maintained at a temperature of about 26-28° C. in 1 l Bellco spinner flasks at 60-90 rpm. Cell viability was maintained at 95-100%, as determined by a tryptan blue dye exclusion test.
# Sf21 cells were infected with a baculovirus expression vector for JAK3 (JH1 and JH2 domain). After 48 hours of infection, cells were harvested and lysed in Tris-saline (pH 7.6) containing 2% NP-40 and a combination of protease inhibitors (Aprotinin, Pepstatin A, Pefabloc, E-64, Leupeptin, and Benzamidine) on ice for 45 minutes.
# The JAK3 enzyme was purified from the lysate using glutathione sepharose beads and the enzyme activity was assessed in Costar flat bottom EIA/RIA 96 well plates. The plates were coated with Neutravidin (110 μL) (Pierce Neutravidin Biotin-binding Protein 31000; 1 mg/mL 1:100) diluted in PBS for 1 hour at room temperature. The plates were washed with PBS-0.1% Tween (3 times) to remove unbound Neutravidin, then 1% BSA (150 NIL) in PBS was added to each well to block non-specific binding. The plates was incubated for 1 hour at room temperature and stored at −80° C. until use.
# JAK3 enzyme solution (48 μL) in 1.25×TK buffer (62.5 mM HEPES pH 7.5, 12.5 mM MgCl2) containing DTT (42 mM) (Sigma, St. Louis, Mo.) was added to each well of a polypropylene 96 well plate.
# A test compound (5 μL) diluted in DMSO (48 μL) and biotinylated peptide enzyme substrate (5 μg diluted in TK buffer containing 10 μM ATP) were added to each well using the double dispense feature of a multichannel electronic biohit. Control wells received DMSO vehicle (5 μL). The contents of the wells were mixed for approximately 8 seconds using a multitube vortexer and the reaction mixture was incubated for 1 hour at room temperature.
# After incubation, an aliquot of reaction mixture (90 μL) was transferred into a washed Neutravidin coated plate. The plate was incubated for 15 minutes at room temperature and washed 3 times with PBS-T. PY99 anti-phosphotyrosine antibody (100 μL/well) (Santa Cruz #sc-7020HRP diluted 1:6000 in 1× antibody buffer) was added into each well and the plate was incubated for 40 minutes at room temperature. The antibody buffer contained 10% BSA, 100 mM Tris (pH 7.5), 1M NaCl and 1% Tween 20. The plate washed 3 times with PBS-T, then TMB (100 pLXSigma, St. Louis, Mo.) was added to the each well. The plate was incubated for another 40 mins at room temperature in the dark. The reaction was stopped by the addition of 1M H2SO4 (50 μL/well) and the optical density was read at 450/650 nm.
# Test compounds were assayed in triplicate at 16 concentrations at half-log dilutions starting at 200 μM. A maximum and minimum signal for the assay was determined on each plate. The percent inhibition of a test compound was calculated according to the formula [formula]
# For a series of test concentrations, the IC50 was derived by graphing percent inhibition against the log of the concentrations tested for a given compound. For those compounds without an IC50, the percent inhibition results are shown at a test concentration of 1 μM.
row,SMILES,IC50
1,"O=C1NC(=O)c2c1c1c3ccccc3n3c1c1c2c2ccccc2n1C/C=C\C3 [Cpd 1, 12,13-(but-2-en-1,4-yl)-12,13-dihydro-5,7-dioxo-6H-indolo[2,3-a]pyrrolo[3,4-c]carbazole]",22 nM
2,"O=C1NCc2c1c1c3ccccc3n3c1c1c2c2ccccc2n1C/C=C\C3 [Cpd 2, 12,13-(but-2-en-1,4-yl)-6,7,12,13-tetrahydro-5-oxo-5H-indolo[2,3-a]pyrrolo[3,4-c]carbazole]",40 nM
3,"COC(=O)/C1=C/Cn2c3ccccc3c3c4c(c5c6ccccc6n(c5c32)C1)C(=O)NC4=O [Cpd 3, 12,13-(2-methoxycarbonyl-but-2-en-1,4-yl)-12,13-dihydro-5,7-dioxo-6H-indolo[2,3-a]pyrrolo[3,4-c]carbazole]",7 nM
4,"C/C1=C(\C)Cn2c3ccccc3c3c4c(c5c6ccccc6n(c5c32)C1)CNC4=O [Cpd 4, 12,13-(2,3-dimethyl-but-2-en-1,4-yl)-6,7,12,13-tetrahydro-5-oxo-5H-indolo[2,3-a]pyrrolo[3,4-c]carbazole]",72 nM
5,"O=C1NCc2c1c1c3ccccc3n3c1c1c2c2ccccc2n1CC/C=C\CC3 [Cpd 5, 12,13-(hex-3-en-1,6-yl)-6,7,12,13-tetrahydro-5-oxo-5H-indolo[2,3-a]pyrrolo[3,4-c]carbazole]",39 nM
6,"O=C1NCc2c1c1c3cc(Br)ccc3n3c1c1c2c2ccccc2n1C/C=C\C3 [Cpd 6, 3-bromo-12,13-(but-2-en-1,4-yl)-6,7,12,13-tetrahydro-5-oxo-5H-indolo[2,3-a]pyrrolol [3,4-c]carbazole]",171 nM
7,"O=C1NC(=O)c2c1c1c3ccccc3n3c1c1c2c2ccccc2n1CC(O)CC3 (centres unmarked) [Cpd 7, 12,13-(2-hydroxy-butan-1,4-yl)-12,13-dihydro-5,7-dioxo-6H-indolo[2,3-a]pyrrolo[3,4-c]carbazole]",5 nM
8,O=C1NC(=O)c2c1c1c3ccccc3n3c1c1c2c2ccccc2n1CC(O)CCC3 (centres unmarked) [Cpd 8],8 nM
9,"COC1Cn2c3ccccc3c3c4c(c5c6ccccc6n(c5c32)CC1OC)C(=O)NC4=O (centres unmarked) [Cpd 10, 12,13-(2,3-dimethoxy-butan-1,4-yl)-12,13-dihydro-5,7-dioxo-6H-indolo[2,3-a]pyrrolo[3,4-c]carbazole]",16 nM
10,"O=C1NC(=O)c2c1c1c3ccccc3n3c1c1c2c2ccccc2n1CC(O)C(O)CC3 (centres unmarked) [Cpd 11, 12,13-(2,3-dihydroxy-pentan-1,5-yl)-12,13-dihydro-5,7-dioxo-6H-indolo[2,3-a]pyrrolo[3,4-c]carbazole]",9 nM
11,"COC(=O)C1(O)Cn2c3ccccc3c3c4c(c5c6ccccc6n(c5c32)CC1O)C(=O)NC4=O (centres unmarked) [Cpd 12, 12,13-(2-methoxycarbonyl-2,3-dihydroxy-butan-1,4-yl)-12,13-dihydro-5,7-dioxo-6H-indolo[2,3-a]pyrrolo[3,4-c]carbazole]",1 nM
12,"O=C1NC(=O)c2c1c1c3ccccc3n3c1c1c2c2ccccc2n1CC(O)(C(=O)O)C(O)C3 (centres unmarked) [Cpd 13, 12,13-(2-carboxy-2,3-dihydroxy-butan-1,4-yl)-12,13-dihydro-5,7-dioxo-6H-indolo[2,3-a]pyrrolo[3,4-c]carbazole]",9 nM
13,"O=C1NCc2c1c1c3ccccc3n3c1c1c2c2ccccc2n1CC(O)C(O)C3 (centres unmarked) [Cpd 14, 12,13-(2,3-dihydroxy-butan-1,4-yl)-6,7,12,13-tetrahydro-5-oxo-5H-indolo[2,3-a]pyrrolo[3,4-c]carbazole]",7 nM
14,"CN(C)CC(=O)OC1Cn2c3ccccc3c3c4c(c5c6ccccc6n(c5c32)CC1OC(=O)CN(C)C)C(=O)NC4 (centres unmarked) [Cpd 15, 12,13-{2,3-bis-[(dimethylaminomethyl)carbonyloxy]-butan-1,4-yl}-6,7,12,13-tetrahydro-5-oxo-5H-indolo[2,3-a]pyrrolo[3,4-c]carbazole]",653 nM
15,"CC1(C)O[C@H]2Cn3c4ccccc4c4c5c(c6c7ccccc7n(c6c43)C[C@@H]2O1)C(=O)NC5 [Cpd 16, 12,13-[(4S,5S)-2,2-dimethyl-[1,3]dioxolo[4,5-b]butan-1,4-yl]-6,7,12,13-tetrahydro-5-oxo-5H-indolo[2,3-a]pyrrolo[3,4-c]carbazole]",105 nM
16,"CC1(C)O[C@@H]2Cn3c4ccccc4c4c5c(c6c7ccccc7n(c6c43)C[C@H]2O1)C(=O)NC5 [Cpd 17, 12,13-[(4R,5R)-2,2-dimethyl-[1,3]dioxolo[4,5-b]butan-1,4-yl]-6,7,12,13-tetrahydro-5-oxo-5H-indolo[2,3-a]pyrrolo[3,4-c]carbazole]",45 nM
17,"O=C1NCc2c1c1c3ccccc3n3c1c1c2c2ccccc2n1C[C@H](O)[C@@H](O)C3 [Cpd 18, 12,13-[(2S,3S)-dihydroxy-butan-1,4-yl]-6,7,12,13-tetrahydro-5-oxo-5H-indolo[2,3-a]pyrrolo[3,4-c]carbazole]",32 nM
18,"O=C1NCc2c1c1c3ccccc3n3c1c1c2c2ccccc2n1C[C@@H](O)[C@H](O)C3 [Cpd 19, 12,13-[(2R,3R)-dihydroxy-butan-1,4-yl]-6,7,12,13-tetrahydro-5-oxo-5H-indolo[2,3-a]pyrrolo[3,4-c]carbazole]",53 nM
19,"CC1(O)Cn2c3ccccc3c3c4c(c5c6ccccc6n(c5c32)CC1(C)O)C(=O)NC4 (centres unmarked) [Cpd 20, 12,13-(2,3-dimethyl-2,3-dihydroxy-butan-1,4-yl)-6,7,12,13-tetrahydro-5-oxo-5H-indolo[2,3-a]pyrrolo[3,4-c]carbazole]",12 nM
20,"O=C1NCc2c1c1c3ccccc3n3c1c1c2c2ccccc2n1CCC(O)C(O)CC3 (centres unmarked) [Cpd 21, 12,13-(3,4-dihydroxy-hexan-1,6-yl)-6,7,12,13-tetrahydro-5-oxo-5H-indolol[2,3-a]pyrrolo[3,4-c]carbazole]",12 nM
21,"C=C1Cn2c3ccccc3c3c4c(c5c6ccccc6n(c5c32)C1)C(=O)NC4 [Cpd 22, 12,13-(2-methylene-propan-1,3-yl)-6,7,12,13-tetrahydro-5-oxo-5H-indolo[2,3-a]pyrrolo[3,4-c]carbazole]",72 nM
22,"O=C1NCc2c1c1c3ccccc3n3c1c1c2c2ccccc2n1CC(CO)C3 (centres unmarked) [Cpd 23, 12,13-(2-hydroxymethyl-propan-1,3-yl)-6,7,12,13-tetrahydro-5-oxo-5H-indolo[2,3-a]pyrrolo[3,4-c]carbazole]",22 nM
23,"O=C1NCc2c1c1c3ccccc3n3c1c1c2c2ccccc2n1CC(=C(CO)CO)C3 [Cpd 24, 12,13-(2-{[1,1-bis-(dihydroxymethyl)]methylidene}-propan-1,3-yl)-6,7,12,13-tetrahydro-5-oxo-5H-indolo[2,3-a]pyrrolo[3,4-c]carbazole]",37 nM
24,"O=C1NCc2c1c1c3ccccc3n3c1c1c2c2ccccc2n1CC(O)(CO)C3 (centres unmarked) [Cpd 25, 12,13-(2-hydroxy-2-hydroxymethyl-propan-1,3-yl)-6,7,12,13-tetrahydro-5-oxo-5H-indolo[2,3-a]pyrrolo[3,4-c]carbazole]",29 nM
25,CC1(C)OCC2(CO1)Cn1c3ccccc3c3c4c(c5c6ccccc6n(c5c31)C2)C(=O)NC4 [Cpd 26],95 nM
26,"O=C1NCc2c1c1c3ccccc3n3c1c1c2c2ccccc2n1CC(CO)(CO)C3 [Cpd 27, 12,13-(2,2-bis-hydroxymethyl-propan-1,3-yl)-6,7,12,13-tetrahydro-5-oxo-5H-indolo[2,3-a]pyrrolo[3,4-c]carbazole]",15 nM

# Source: US20070249590A1, “Substituted indolo[2,3-a]pyrrolo[3,4-c]carbazole compounds useful in treating kinase disorders” (priority 2005, published 2007)
